Laboratory results: patent US7884070B2, “Linear cationic peptides having antibacterial and/or antifungal properties” (priority 2002, dated 2011)
In brackets after ≈: the same amount, converted by molar mass. Where a SMILES comes first, the peptide text is derived from it.

Key:
[1] = test system: Enterococcus faecium ATCC 35667; assay type: cell-based
[2] = test system: Escherichia coli ATCC 35218; assay type: cell-based
[3] = test system: Streptococcus pyogenes ATCC 19615; assay type: cell-based
in vitro = conditions: human, human plasma
Procedure: The stability was determined at 37° C. After 0, 0.5, 1, 2, 4 and 6 hours, 3×200 μl were collected and added to 10 μl of internal standard (peptide no. 1) at 500 μM in water, to which 800 μl of 0.1% trifluoroacetic acid (TFA) in water was added. A volume of 1 ml of this mixture was deposited on resin C2 (EC) that had previously been equilibrated with 1 ml of 0.1% TFA in water, 1 ml of 0.1% TFA in acetonitrile and 1 ml of 0.1% TFA in water. After two washings with 1 ml of 0.1% TFA in water, the elution of peptide and of its metabolites was induced by 1 ml of 0.1% TFA in methanol. This was then dried under a stream of air and taken up in 200 μl of 0.1% TFA in water. A volume of 100 μl was analyzed by HPLC on a Luna C1 8(2) column, 3 μg, 4.6×100 mm (Phenomenex) with 0.1% TFA in water as solvent A and 0.1% TFA in acetonitrile as solvent B. A gradient of 15-45% of B in 12 minutes was used for the elution with a flow rate of 1.2 ml/min; detection was performed at 214 nm.

C. neoformans Cn52D = assay type: cell-based, Cryptococcus neoformans
Procedure: D. Determination of the miminimal inhibitory concentration (MIC) in liquid medium for the Filamentous Fungi and Yeast
Peptide concentrations tested: from 0.2 μg/ml to 100 μg/ml.

[4] = test system: Shigella flexneri ATCC 112022
[5] = test system: Streptococcus agalactiae ATCC 13813; assay type: cell-based
[6] = test system: Serratia marcescens ATCC 8100; assay type: cell-based
[7] = test system: Enterobacter aerogenes ATCC 13048; assay type: cell-based
[8] = test system: Enterococcus faecalis ATCC 19433; assay type: cell-based
[9] = test system: Enterococcus faecalis ATCC 29212; assay type: cell-based
[10] = In vivo toxicity: maximal tolerated dose (MTD); conditions: mouse, female OFI mice, intravenous perfusion approx. 15 minutes, 28 days after an injection
Procedure: The maximal tolerated dose (MTD) for each peptide was determined on female OFI mice at 28 days after an injection. The MTD was defined as the maximal nonlethal dose that could be injected. The peptides were administered by the intravenous route as a perfusion of approximately 15 minutes duration. The injection volume was 10 μl/g, the perfusion rate was 1.2 ml/hour and the excipient was a solution of NaCl at 0.8%.

[11] = test system: Bacillus cereus ATCC 11778; assay type: cell-based
[12] = test system: Listeria monocytogenes ATCC 19115; assay type: cell-based
[13] = test system: Micrococcus luteus ATCC 9341; assay type: cell-based
[14] = test system: Acinetobacter baumanii clinical strains; assay type: cell-based
Procedure: A volume of 3 μl of each concentration of antibiotic was deposited on the agar media: • MH: for the non-exigent strains, • MH+5% sheep blood: for the streptococci, Listeria, Bacillus and Neisseria, • HTM: for the Haemophilus. […]

[15] = test system: Citrobacter freundii ATCC 8090; assay type: cell-based
[16] = test system: Haemophilus influenzae ATCC 49247; assay type: cell-based
[17] = test system: Acinetobacter baumanii ATCC 19606; assay type: cell-based
[18] = test system: Enterobacter cloacae ATCC 23355; assay type: cell-based
[19] = test system: Enterobacter aerogenes clinical strains; assay type: cell-based
[20] = test system: Staphylococcus epidermidis ATCC 12228; assay type: cell-based
[21] = test system: Escherichia coli ATCC 25922; assay type: cell-based
[22] = test system: Proteus vulgaris ATCC 13315; assay type: cell-based
[23] = test system: Klebsiella pneumoniae ATCC 13883; assay type: cell-based
[24] = test system: Staphylococcus aureus ATCC 25923; assay type: cell-based
[25] = test system: Streptococcus pneumoniae ATCC 49619; assay type: cell-based
Neisseria sica ATCC 9913 = assay type: cell-based
[26] = test system: Bacillus subtilis ATCC 6633; assay type: cell-based
[27] = test system: Salmonella typhimurium ATCC 14028; assay type: cell-based
[28] = test system: Pseudomonas aeruginosa ATCC 27853; assay type: cell-based
[29] = test system: Shigella sonnei ATCC 25931
Procedure: The MIC values were determined by the method of microdilution in liquid medium (NCCLS M7A5) for all of the bacterial species on 96-well polystyrene plates.
The culture medium was Mueller-Hinton broth (MHB) (pH≈7.2-7.4) with supplements according to the bacterial species studied: • MHB alone for the non-exigent species, • MHB+3% lysed horse blood for the streptococci, Listeria and Neisseria, • MHB+hemin 15 mg/l+NAD 15 mg/l+yeast extract 5 g/l for Haemophilus.
The bacterial inoculum was prepared from re-isolation performed on: • CLED agar: non-exigent strains, • blood agar+5% goat blood: streptococci, Listeria and Neisseria • chocolate agar+5% goat blood: Haemophilus, Neisseria.
The final inoculum was at ≈5·10^5 cfu/ml (colony forming units). 50 μl of bacterial inoculum was distributed per well containing an equal volume of the peptide solution diluted by half in the appropriate culture medium depending on the bacterial species (0.5 to 512 μg/ml). The cultures were incubated at 35° C. in ambient air for 16 to 20 hours (20 to 24 h for the streptococci).
Determination of the MBC values was performed after inhibition and reading of the MIC plates:
A volume of 3 μl of each concentration of antibiotic was deposited on the agar media: • MH: for the non-exigent strains, • MH+5% sheep blood: for the streptococci, Listeria, Bacillus and Neisseria, • HTM: for the Haemophilus.
The agars were incubated for 18 h at 35° C. in atmosphere: • in ambient air: for the non-exigent strains, • with 5-6% of CO2: for the streptococci, Listeria, Haemophilus and Neisseria.
The MBC is the lowest concentration of antibiotic that inhibits all bacterial growth on the transplant agar (<0. 1% of survivors).

[30] = test system: Streptococcus pneumoniae ATCC 6303; assay type: cell-based
[31] = test system: Staphylococcus aureus ATCC 14154; assay type: cell-based

With `CC(C)C[C@H](NC(=O)[C@H](CCCCN)NC(=O)[C@H](C)NC(=O)[C@H](CC(C)C)NC(=O)[C@@H](N)CCCCN)C(=O)N[C@@H](C)C(=O)N[C@@H](CCCCN)C(=O)N[C@@H](CCCCN)C(=O)N[C@@H](CC(C)C)C(=O)N[C@@H](C)C(=O)N[C@@H](CCCCN)C(=O)N[C@@H](CC(C)C)C(=O)N[C@@H](C)C(=O)N[C@@H](CCCCN)C(=O)N[C@@H](CCCCN)C(=O)N[C@@H](Cc1c[nH]cn1)C(=O)N[C@@H](CC(C)C)C(=O)N[C@@H](CCCCN)C(=O)N[C@@H](CCCCN)C(=O)N[C@@H](Cc1c[nH]cn1)C(=O)N[C@@H](CC(C)C)C(=O)N[C@@H](CCCCN)C(=O)N[C@@H](CCCCN)C(=O)N[C@@H](Cc1c[nH]cn1)C(=O)N[C@@H](CC(C)C)C(=O)N[C@@H](CCCCN)C(=O)O` [Peptide 2] (H-KLAKLAKKLAKLAKKHLKKHLKKHLK-OH; N-terminus and C-terminus assumed) as the molecule, how does the MBC [1] read?
The MBC was 32 µg/mL (≈ 10.5 µM).

And the MIC [1]?
Its MIC is 16 µg/mL (≈ 5.26 µM).

And the MBC [2]?
Its MBC is 2 µg/mL (≈ 0.657 µM).

What about the MIC [2] of the same molecule?
The MIC was 2 µg/mL (≈ 0.657 µM).

And the MBC [3]?
The MBC was 8 µg/mL (≈ 2.63 µM).

And the MIC [3]?
Its MIC is 8 µg/mL (≈ 2.63 µM).

What about the metabolised at 6 h, 50 µM (in vitro) of the same molecule?
Its metabolised at 6 h, 50 µM is no more than 41%.

What about the MIC (C. neoformans Cn52D) of the same molecule?
The MIC was 1.56 µg/mL (≈ 0.512 µM).

What about the MBC [4] of the same molecule?
The MBC was 2 µg/mL (≈ 0.657 µM).

What about the MIC [4] of the same molecule?
Its MIC is 2 µg/mL (≈ 0.657 µM).

And the MBC [5]?
The MBC was 8 µg/mL (≈ 2.63 µM).

And the MIC [5]?
Its MIC is 8 µg/mL (≈ 2.63 µM).

And the MBC [6]?
The MBC was greater than 512 µg/mL.

And the MIC [6]?
The MIC was greater than 512 µg/mL.

And the MBC [7]?
Its MBC is 16 µg/mL (≈ 5.26 µM).

And the MIC [7]?
Its MIC is 16 µg/mL (≈ 5.26 µM).

What about the MBC [8] of the same molecule?
Its MBC is 128 µg/mL (≈ 42.1 µM).

And the MIC [8]?
Its MIC is 64 µg/mL (≈ 21 µM).

What about the MBC [9] of the same molecule?
Its MBC is 32 µg/mL (≈ 10.5 µM).

What about the MIC [9] of the same molecule?
The MIC was 32 µg/mL (≈ 10.5 µM).

And the MTD at 28 days [10]?
Its MTD at 28 days is 13.5 mg/kg.

And the MBC [11]?
The MBC was 8 µg/mL (≈ 2.63 µM).

And the MIC [11]?
The MIC was 8 µg/mL (≈ 2.63 µM).

What about the MBC [12] of the same molecule?
Its MBC is 2 µg/mL (≈ 0.657 µM).

What about the MIC [12] of the same molecule?
Its MIC is 2 µg/mL (≈ 0.657 µM).

What about the MBC [13] of the same molecule?
The MBC was 4 µg/mL (≈ 1.31 µM).

And the MIC [13]?
The MIC was 4 µg/mL (≈ 1.31 µM).

And the MIC [14]?
The MIC was 2 µg/mL (≈ 0.657 µM).

What about the MBC [15] of the same molecule?
The MBC was 8 µg/mL (≈ 2.63 µM).

And the MIC [15]?
The MIC was 8 µg/mL (≈ 2.63 µM).

What about the MBC [16] of the same molecule?
The MBC was 32 µg/mL (≈ 10.5 µM).

And the MIC [16]?
Its MIC is 32 µg/mL (≈ 10.5 µM).

And the MBC [17]?
Its MBC is 2 µg/mL (≈ 0.657 µM).

And the MIC [17]?
The MIC was 2 µg/mL (≈ 0.657 µM).

And the MBC [18]?
Its MBC is 2 µg/mL (≈ 0.657 µM).

What about the MIC [18] of the same molecule?
Its MIC is 2 µg/mL (≈ 0.657 µM).

What about the MBC [19] of the same molecule?
Its MBC is 8 µg/mL (≈ 2.63 µM).

What about the MBC [20] of the same molecule?
Its MBC is 2 µg/mL (≈ 0.657 µM).

What about the MIC [20] of the same molecule?
The MIC was 2 µg/mL (≈ 0.657 µM).

What about the MBC [21] of the same molecule?
The MBC was 2 µg/mL (≈ 0.657 µM).

And the MIC [21]?
Its MIC is 2 µg/mL (≈ 0.657 µM).

And the MBC [22]?
The MBC was 4 µg/mL (≈ 1.31 µM).

And the MIC [22]?
Its MIC is 4 µg/mL (≈ 1.31 µM).

What about the MBC [23] of the same molecule?
Its MBC is 32 µg/mL (≈ 10.5 µM).

And the MIC [23]?
The MIC was 32 µg/mL (≈ 10.5 µM).

And the MBC [24]?
The MBC was 32 µg/mL (≈ 10.5 µM).

And the MIC [24]?
The MIC was 16 µg/mL (≈ 5.26 µM).

What about the MBC [25] of the same molecule?
Its MBC is 256 µg/mL (≈ 84.1 µM).

And the MIC [25]?
The MIC was 16 µg/mL (≈ 5.26 µM).

And the MBC (Neisseria sica ATCC 9913)?
The MBC was 0.5 µg/mL (≈ 0.164 µM).

What about the MIC (Neisseria sica ATCC 9913) of the same molecule?
The MIC was 0.5 µg/mL (≈ 0.164 µM).

And the MBC [26]?
The MBC was 8 µg/mL (≈ 2.63 µM).

What about the MIC [26] of the same molecule?
The MIC was 8 µg/mL (≈ 2.63 µM).

And the MBC [27]?
Its MBC is 4 µg/mL (≈ 1.31 µM).

What about the MIC [27] of the same molecule?
The MIC was 4 µg/mL (≈ 1.31 µM).

What about the MBC [28] of the same molecule?
Its MBC is 8 µg/mL (≈ 2.63 µM).

And the MIC [28]?
The MIC was 8 µg/mL (≈ 2.63 µM).

And the MBC [29]?
Its MBC is 2 µg/mL (≈ 0.657 µM).

What about the MIC [29] of the same molecule?
Its MIC is 2 µg/mL (≈ 0.657 µM).

And the MBC [30]?
The MBC was 128 µg/mL (≈ 42.1 µM).

What about the MIC [30] of the same molecule?
The MIC was 32 µg/mL (≈ 10.5 µM).

What about the MBC [31] of the same molecule?
Its MBC is 64 µg/mL (≈ 21 µM).

What about the MIC [31] of the same molecule?
Its MIC is 32 µg/mL (≈ 10.5 µM).
